# Data from patent US8785457B2 (Cellzome Limited, priority 2009, dated 2014).
# How the values were obtained:
# [1] = tested on: Delayed type hypersensitivity (DTH) reaction; test: Delayed type hypersensitivity in mice (KLH, ear thickness); type: in vivo
# Text: The Delayed type hypersensitivity (DTH) reaction is observed when subjects are immunized with an antigen, and then subsequently challenged with the same antigen to induce a localized inflammation. The model can be inhibited by drugs affecting a range of immune and inflammatory mechanisms. In this instance, a DTH reaction is induced in mice using Keyhole Limpet Hemocyanin (KLH), measuring inflammation in the ear pinna. Keyhole Limpet Hemocyanin (KLH; Sigma, catalogue number H7017) preparation: […] Aliquots were stored at −20° C. For the first immunization (day 0) the KLH stock solution (10 mg/ml) was diluted to 0.5 mg/ml with PBS (1:20). Then a 1:1 mixture with Complete Freund's Adjuvant (CFA; Sigma catalogue number 5881) was prepared (final KLH concentration 0.25 mg/ml). For the second immunization (day 5) the KLH stock solution was diluted to 1 mg/ml with 0.9% NaCl (1:10). Mice (Balb/c ˜9 weeks of age) were immunized with 2×100 μl of a 1:1 emulsion of KLH in CFA (25 μg KLH/site) injected subcutaneously into the right and left flank. On day 5 post-injection, mice received a challenge of 10 μg KLH (in 10 μl physiological saline), injected intradermally into the right ear. On day 5, 6 and 7 the ear thickness was measured with a caliper. Measurements were performed one hour after compound administration in the morning. Compound CZC1 corresponding to example 34 of the present invention was dosed once daily orally (p.o.) from day 0 to day 7 (Table 10). Vehicle: 0.5% carboxymethylcellulose (CMC). Doses: 3, 10 and 30 mg/kg. Cyclosporine A (Calbiochem) was dosed twice daily orally (p.o., 8 am and 4 pm from day 0 to day 7). Vehicle: 5% DMSO, 0.5 CMC. Dose: 25 mg/kg. Control treatment: 5% DMSO, 0.5% CMC administered p.o. [table]
# [2] = tested on: Salmonella typhimurium strain TA1535; test: Ames plate assay, TA1535
# Protocol: (§1) Certain compounds of the invention were tested for their potential to induce gene mutations in bacterial strains of Salmonella typhimurium (strains TA1535, TA1537, TA98, TA100) and Escherichia coli (strain WP2uvrA(pKM101)) in a bacterial mutation assay in the absence and presence of metabolite activation (rat S9-mix). Compounds are tested at the following dose levels: 50, 150, 500, or 1500 μg/plate.
# (§2) Vehicle control treatment is the vehicle used to prepare the test compound formulation diluted to the same extent as the test compound solution. Positive controls using known mutagens are included for each strain with and without rat S9 mix. Four plates are used for the vehicle control and two replicate plates per dose per strain for the treated groups and for each positive control. At the end of incubation the number of revertant colonies per plate are recorded and mean values calculated for each vehicle control, positive control and concentration of test compound used. Results are also expressed as a ratio of the mean values to the mean concurrent vehicle control value (i.e. fold increase).
# [3] = tested on: Salmonella typhimurium strain TA1537; test: Ames plate assay, TA1537
# Protocol: as §1, §2
# [4] = tested on: Salmonella typhimurium strain TA98; test: Ames plate assay, TA98
# Protocol: as §1, §2
# [5] = tested on: Salmonella typhimurium strain TA100; test: Ames plate assay, TA100
# Protocol: as §1, §2
# [6] = tested on: Escherichia coli strain WP2uvrA(pKM101); test: Ames plate assay, WP2uvrA(pKM101)
# Protocol: as §1, §2
smiles,measurement,setting,value
"CCOC(=O)N1Cc2nc(-c3ccc(NC(=O)NC4CC4)cc3)nc(N3CCOC[C@@H]3C)c2C1 [Example 34, (S)-ethyl 2-(4-(3-cyclopropylureido)phenyl)-4-(3-methylmorpholino)-5H-pyrrolo[3,4-d]pyrimidine-6(7H)-carboxylate]",increase in ear thickness,"[1]; 3 mg/kg p.o. once daily day 0 to day 7, 24 hours post-challenge",significantly reduced
same,increase in ear thickness,"[1]; 10 mg/kg p.o. once daily day 0 to day 7, 24 hours post-challenge",significantly reduced
same,increase in ear thickness,"[1]; 30 mg/kg p.o. once daily day 0 to day 7, 24 hours post-challenge",significantly reduced
same,Ames plate assay TA1535 +S9,"[2]; TA1535, +S9, 50 μg/Plate",−
same,Ames plate assay TA1535 +S9,"[2]; TA1535, +S9, 150 μg/Plate",−
same,Ames plate assay TA1535 +S9,"[2]; TA1535, +S9, 500 μg/Plate",−
same,Ames plate assay TA1535 +S9,"[2]; TA1535, +S9, 1500 μg/Plate",−
same,Ames plate assay TA1535 −S9,"[2]; TA1535, −S9, 50 μg/Plate",−
same,Ames plate assay TA1535 −S9,"[2]; TA1535, −S9, 150 μg/Plate",−
same,Ames plate assay TA1535 −S9,"[2]; TA1535, −S9, 500 μg/Plate",−
same,Ames plate assay TA1535 −S9,"[2]; TA1535, −S9, 1500 μg/Plate",−
same,Ames plate assay TA1537 +S9,"[3]; TA1537, +S9, 50 μg/Plate",−
same,Ames plate assay TA1537 +S9,"[3]; TA1537, +S9, 150 μg/Plate",−
same,Ames plate assay TA1537 +S9,"[3]; TA1537, +S9, 500 μg/Plate",−
same,Ames plate assay TA1537 +S9,"[3]; TA1537, +S9, 1500 μg/Plate",−
same,Ames plate assay TA1537 −S9,"[3]; TA1537, −S9, 50 μg/Plate",−
same,Ames plate assay TA1537 −S9,"[3]; TA1537, −S9, 150 μg/Plate",−
same,Ames plate assay TA1537 −S9,"[3]; TA1537, −S9, 500 μg/Plate",−
same,Ames plate assay TA1537 −S9,"[3]; TA1537, −S9, 1500 μg/Plate",−
same,Ames plate assay TA98 +S9,"[4]; TA98, +S9, 50 μg/Plate",−
same,Ames plate assay TA98 +S9,"[4]; TA98, +S9, 150 μg/Plate",−
same,Ames plate assay TA98 +S9,"[4]; TA98, +S9, 500 μg/Plate",−
same,Ames plate assay TA98 +S9,"[4]; TA98, +S9, 1500 μg/Plate",−
same,Ames plate assay TA98 −S9,"[4]; TA98, −S9, 50 μg/Plate",−
same,Ames plate assay TA98 −S9,"[4]; TA98, −S9, 150 μg/Plate",−
same,Ames plate assay TA98 −S9,"[4]; TA98, −S9, 500 μg/Plate",−
same,Ames plate assay TA98 −S9,"[4]; TA98, −S9, 1500 μg/Plate",−
same,Ames plate assay TA100 +S9,"[5]; TA100, +S9, 50 μg/Plate",−
same,Ames plate assay TA100 +S9,"[5]; TA100, +S9, 150 μg/Plate",−
same,Ames plate assay TA100 +S9,"[5]; TA100, +S9, 500 μg/Plate",−
same,Ames plate assay TA100 +S9,"[5]; TA100, +S9, 1500 μg/Plate",−
same,Ames plate assay TA100 −S9,"[5]; TA100, −S9, 50 μg/Plate",−
same,Ames plate assay TA100 −S9,"[5]; TA100, −S9, 150 μg/Plate",−
same,Ames plate assay TA100 −S9,"[5]; TA100, −S9, 500 μg/Plate",−
same,Ames plate assay TA100 −S9,"[5]; TA100, −S9, 1500 μg/Plate",−
same,Ames plate assay WP2uvrA (pKM101) +S9,"[6]; +S9, 50 μg/Plate",−
same,Ames plate assay WP2uvrA (pKM101) +S9,"[6]; +S9, 150 μg/Plate",−
same,Ames plate assay WP2uvrA (pKM101) +S9,"[6]; +S9, 500 μg/Plate",−
same,Ames plate assay WP2uvrA (pKM101) +S9,"[6]; +S9, 1500 μg/Plate",−
same,Ames plate assay WP2uvrA (pKM101) −S9,"[6]; −S9, 50 μg/Plate",−
same,Ames plate assay WP2uvrA (pKM101) −S9,"[6]; −S9, 150 μg/Plate",−
same,Ames plate assay WP2uvrA (pKM101) −S9,"[6]; −S9, 500 μg/Plate",−
same,Ames plate assay WP2uvrA (pKM101) −S9,"[6]; −S9, 1500 μg/Plate",−
